In patent US8663639B2, “Formulations for treating ocular diseases and conditions” (Santen Pharmaceutical Co., Ltd., priority 2005, dated 2014):
Read-outs that look alike come from different tables or passages of the source.

Experiment: Topical administration (eye drops) of formulation #340, rapamycin levels in blood, cornea, retina choroid, sclera and vitreous (Tables 3-6)
Format: in vivo
Settings: rabbit, formulation #340 topical; for concentration at 8 day / concentration at 10 day / concentration at 12 day / concentration at 14 day: Group III (two drops once a day on both eyes for 6 days)
Procedure: Both eyes (or one eye depending on the study) of each animal received one or two drops (40 μl per drop) of the studied formulations using a calibrated pipette on day 0 (day of dosing).
For Tables 3-6, the solution of Example 46 (formulation #340) was administered two drops twice a day on both eyes, one time for Group I, two drops once a day on one eye, one time for Group II, and two drops once a day on both eyes for 6 days in Group III. In Group II, the right eye (OD) but not the left eye (OS) received eye drops. In a further study, one drop of the formulation #340 (40 μL containing 880 μg rapamycin) was administered on day zero.

concentration at 1 day (sclera, 2 drops (40 μl per drop) on one eye (right eye, OD), Group II (two drops once a day on one eye, one time), OD, day 1, n = 1, read-out: Rapamycin level, sclera): 421 ng/g | concentration at 2 day (sclera, 2 drops (40 μl per drop) on one eye (right eye, OD), Group II (two drops once a day on one eye, one time), OD, day 2, n = 1, read-out: Rapamycin level, sclera): 1350 ng/g | concentration at 3 day (sclera, 2 drops (40 μl per drop) on one eye (right eye, OD), Group II (two drops once a day on one eye, one time), OD, day 3, n = 1, read-out: Rapamycin level, sclera): 541 ng/g | concentration at 1 day (sclera, 2 drops (40 μl per drop) on one eye (right eye, OD), Group II (two drops once a day on one eye, one time), OS, day 1, n = 1, read-out: Rapamycin level, sclera): 34.2 ng/g | concentration at 2 day (sclera, 2 drops (40 μl per drop) on one eye (right eye, OD), Group II (two drops once a day on one eye, one time), OS, day 2, n = 1, read-out: Rapamycin level, sclera): 144 ng/g | concentration at 3 day (sclera, 2 drops (40 μl per drop) on one eye (right eye, OD), Group II (two drops once a day on one eye, one time), OS, day 3, n = 1, read-out: Rapamycin level, sclera): 104 ng/g | concentration at 8 day (sclera, 2 drops (40 μl per drop) per eye, both eyes, day 8, n = 2, read-out: Rapamycin level, sclera): 895 ng/g | concentration at 10 day (sclera, 2 drops (40 μl per drop) per eye, both eyes, day 10, n = 2, read-out: Rapamycin level, sclera): 613 ng/g | concentration at 12 day (sclera, 2 drops (40 μl per drop) per eye, both eyes, day 12, n = 2, read-out: Rapamycin level, sclera): 131 ng/g | concentration at 14 day (sclera, 2 drops (40 μl per drop) per eye, both eyes, day 14, n = 2, read-out: Rapamycin level, sclera): 420 ng/g | concentration at 1 day (sclera, 2 drops (40 μl per drop) per eye, both eyes, twice a day, Group I (two drops twice a day on both eyes, one time), day 1, n = 2, read-out: Rapamycin level, sclera): 90.8 ng/g | concentration at 2 day (sclera, 2 drops (40 μl per drop) per eye, both eyes, twice a day, Group I (two drops twice a day on both eyes, one time), day 2, n = 2, read-out: Rapamycin level, sclera): 751 ng/g | concentration at 3 day (sclera, 2 drops (40 μl per drop) per eye, both eyes, twice a day, Group I (two drops twice a day on both eyes, one time), day 3, n = 2, read-out: Rapamycin level, sclera): 351 ng/g | concentration at 1 day (vitreous, 2 drops (40 μl per drop) on one eye (right eye, OD), Group II (two drops once a day on one eye, one time), OD, day 1, n = 1, read-out: Rapamycin level, vitreous): 2.06 ng/mL | concentration at 2 day (vitreous, 2 drops (40 μl per drop) on one eye (right eye, OD), Group II (two drops once a day on one eye, one time), OD, day 2, n = 1, read-out: Rapamycin level, vitreous): 5.01 ng/mL | concentration at 3 day (vitreous, 2 drops (40 μl per drop) on one eye (right eye, OD), Group II (two drops once a day on one eye, one time), OD, day 3, n = 1, read-out: Rapamycin level, vitreous): 3.96 ng/mL | concentration at 1 day (vitreous, 2 drops (40 μl per drop) on one eye (right eye, OD), Group II (two drops once a day on one eye, one time), OS, day 1, n = 1, read-out: Rapamycin level, vitreous): 1 ng/mL | concentration at 2 day (vitreous, 2 drops (40 μl per drop) on one eye (right eye, OD), Group II (two drops once a day on one eye, one time), OS, day 2, n = 1, read-out: Rapamycin level, vitreous): 2.95 ng/mL | concentration at 3 day (vitreous, 2 drops (40 μl per drop) on one eye (right eye, OD), Group II (two drops once a day on one eye, one time), OS, day 3, n = 1, read-out: Rapamycin level, vitreous): 4 ng/mL | concentration at 8 day (vitreous, 2 drops (40 μl per drop) per eye, both eyes, day 8, n = 2, read-out: Rapamycin level, vitreous): 19.7 ng/mL | concentration at 10 day (vitreous, 2 drops (40 μl per drop) per eye, both eyes, day 10, n = 2, read-out: Rapamycin level, vitreous): 7.9 ng/mL | concentration at 12 day (vitreous, 2 drops (40 μl per drop) per eye, both eyes, day 12, n = 2, read-out: Rapamycin level, vitreous): 1.46 ng/mL | concentration at 14 day (vitreous, 2 drops (40 μl per drop) per eye, both eyes, day 14, n = 2, read-out: Rapamycin level, vitreous): 5.66 ng/mL | concentration at 1 day (vitreous, 2 drops (40 μl per drop) per eye, both eyes, twice a day, Group I (two drops twice a day on both eyes, one time), day 1, n = 2, read-out: Rapamycin level, vitreous): 1.24 ng/mL | concentration at 2 day (vitreous, 2 drops (40 μl per drop) per eye, both eyes, twice a day, Group I (two drops twice a day on both eyes, one time), day 2, n = 2, read-out: Rapamycin level, vitreous): 5.41 ng/mL | concentration at 3 day (vitreous, 2 drops (40 μl per drop) per eye, both eyes, twice a day, Group I (two drops twice a day on both eyes, one time), day 3, n = 2, read-out: Rapamycin level, vitreous): 3.03 ng/mL
Structure (SMILES): CO[C@H]1C[C@@H]2CC[C@@H](C)[C@@](O)(O2)C(=O)C(=O)N2CCCC[C@H]2C(=O)O[C@H]([C@H](C)C[C@@H]2CC[C@@H](O)[C@H](OC)C2)CC(=O)[C@H](C)/C=C(\C)[C@@H](O)[C@@H](OC)C(=O)[C@H](C)C[C@H](C)/C=C/C=C/C=C/1C [Rapamycin, rapamycin]
